IC50 data for 36 molecules are collected here from patent US20240390340A1 (INCYTE CORPORATION, priority 2023, published 2024).

The target of one assay is KRAS G12V (Homo sapiens, UniProt P01116, G12V). The experiment in a line: GDP-GTP exchange assay (bodipy-GDP/GppNHp, SOS1), KRAS G12V. The class given is biochemical. To be noted: KRAS G12V mutant; value for the most potent isomer quoted for certain compounds; read-out: G12V (KRAS G12V exchange assay IC50).
For the next assay, the target named is KRAS G12D (Homo sapiens, UniProt P01116, G12D). The experiment in a line: GDP-GTP exchange assay (bodipy-GDP/GppNHp, SOS1), KRAS G12D. The class given is biochemical. To be noted: bodipy-loaded KRAS G12D 2.5 nM, 4 h pre-incubation; value for the most potent isomer quoted for certain compounds; read-out: G12D (KRAS G12D exchange assay IC50).
Chain of KRAS G12D (P01116 1-188 isoform P01116-2 G12D): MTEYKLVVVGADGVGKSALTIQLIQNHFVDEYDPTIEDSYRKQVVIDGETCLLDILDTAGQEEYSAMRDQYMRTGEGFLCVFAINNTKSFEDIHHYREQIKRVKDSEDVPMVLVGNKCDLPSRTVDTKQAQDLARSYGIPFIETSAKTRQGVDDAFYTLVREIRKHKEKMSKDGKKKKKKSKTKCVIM

Chain of KRAS G12V (P01116 1-188 isoform P01116-2 G12V): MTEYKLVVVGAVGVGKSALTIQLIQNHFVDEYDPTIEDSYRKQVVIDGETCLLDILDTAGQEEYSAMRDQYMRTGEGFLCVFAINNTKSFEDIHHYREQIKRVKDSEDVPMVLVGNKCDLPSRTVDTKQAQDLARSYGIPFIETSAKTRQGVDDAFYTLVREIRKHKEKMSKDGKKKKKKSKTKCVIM

Regarding `Cc1nc2c(F)c(-c3cccc(Cl)c3Cl)c(CCC#N)cc2c2c1cc([C@H]1C[C@H](OCc3cn(C4CC4)nn3)CN1C(=O)C1CC1)n2[C@H]1[C@H]2CN[C@@H]1C2` [Example 235], the IC50 on KRAS G12V and on KRAS G12D was not above 100 nM in each case.
For the molecule `Cc1nc2c(F)c(-c3cccc(Cl)c3Cl)c(CCC#N)cc2c2c1cc([C@H]1C[C@H](OCc3ccc(Cl)cc3C#N)CN1C(=O)C1CC1)n2[C@H]1[C@H]2CN[C@@H]1C2` [Example 159], the IC50 on KRAS G12V and at KRAS G12D was not above 100 nM each time.
For `Cc1nc2c(F)c(-c3cccc(Cl)c3Cl)c(CCC#N)cc2c2c1cc([C@H]1C[C@H](Oc3ccn(C(F)(F)F)n3)CN1C(=O)C1CC1)n2[C@H]1[C@H]2CN[C@@H]1C2` [Example 357], the IC50 on KRAS G12V and at KRAS G12D was not above 100 nM in each case.
On to `[2H]C([2H])(O[C@H]1C[C@H](c2cc3c(C)nc4c(F)c(-c5cccc(Cl)c5Cl)c(CCC#N)cc4c3n2[C@H]2[C@H]3CN[C@@H]2C3)N(C(=O)C2CC2)C1)c1nscc1C` [Example 233], for which the IC50 at KRAS G12V and on KRAS G12D was not above 100 nM throughout.
In the case of `COc1cnn([C@H]2C[C@H](c3cc4c(C)nc5c(F)c(-c6cccc(Cl)c6Cl)c(CCC#N)cc5c4n3[C@H]3[C@H]4CN[C@@H]3C4)N(C(=O)C3CC3)C2)c1` [Example 352], the IC50 at KRAS G12V and on KRAS G12D was not above 100 nM in each case.
For `CO[C@H]1C[C@H](CO[C@H]2C[C@H](c3cc4c(C)nc5c(F)c(-c6cccc(Cl)c6Cl)c(CCC#N)cc5c4n3[C@H]3[C@H]4CN[C@@H]3C4)N(C(=O)C3CC3)C2)C1` [Example 401], the IC50 at KRAS G12V and at KRAS G12D was not above 100 nM in each case.
Regarding `Cc1cc(-c2nc3c(F)c(-c4cccc(Cl)c4Cl)c(CCC#N)cc3c3c2cc([C@H]2C[C@H](OCc4c(F)cccc4F)CN2C(=O)C2CC2)n3[C@H]2[C@H]3CN[C@@H]2C3)cc(C)n1` [Example 208], the IC50 on KRAS G12V and at KRAS G12D was 5000 to 10000 nM in each case.
Turning to `Cc1nc2c(F)c(-c3cccc(Cl)c3Cl)c(CCC#N)cc2c2c1cc([C@H]1C[C@H](n3cc(C(F)(F)F)nn3)CN1C(=O)C1CC1)n2[C@H]1[C@H]2CN[C@@H]1C2` [Example 414], the IC50 on KRAS G12V and at KRAS G12D was not above 100 nM in each case.
For `Cc1nc2c(F)c(-c3cccc(Cl)c3Cl)c(CCC#N)cc2c2c1cc([C@H]1C[C@H](Oc3cnn(C(C)C)c3)CN1C(=O)C1CC1)n2[C@H]1[C@H]2CN[C@@H]1C2` [Example 442], the IC50 on KRAS G12V and on KRAS G12D was not above 100 nM in each case.
On to `Cc1nc2c(F)c(-c3cccc(Cl)c3Cl)c(CCC#N)cc2c2c1cc([C@H]1C[C@H](OCc3cccc(S(C)(=O)=O)c3)CN1C(=O)C1CC1)n2[C@H]1[C@H]2CN[C@@H]1C2` [Example 164], for which the IC50 on KRAS G12V and at KRAS G12D was not above 100 nM in each case.
For `COc1cccc(O[C@H]2C[C@H](c3cc4c(C)nc5c(F)c(-c6cccc(Cl)c6Cl)c(CCC#N)cc5c4n3[C@H]3C4CNC3C4)N(C(=O)C3CC3)C2)n1` (stereo partly drawn) [Example 199], the IC50 at KRAS G12V and at KRAS G12D was not above 100 nM throughout.
With `CCOC(=O)c1cn([C@H]2C[C@H](c3cc4c(C)nc5c(F)c(-c6cccc(Cl)c6Cl)c(CCC#N)cc5c4n3[C@H]3[C@H]4CN[C@@H]3C4)N(C(=O)C3CC3)C2)nn1` [Example 394], the IC50 at KRAS G12V and on KRAS G12D was not above 100 nM in each case.
As to `Cc1nc2c(F)c(-c3cccc(Cl)c3Cl)c(CCC#N)cc2c2c1cc([C@H]1C[C@H](Oc3cccc(C4CC4)c3)CN1C(=O)C1CC1)n2[C@H]1[C@H]2CN[C@@H]1C2` [Example 169], the IC50 on KRAS G12V and at KRAS G12D was not above 100 nM in each case.
`Cc1nc2c(F)c(-c3cccc(Cl)c3Cl)c(CCC#N)cc2c2c1cc([C@H]1C[C@H](Oc3cnn(C)c3)CN1C(=O)C1CC1)n2[C@H]1[C@H]2CN[C@@H]1C2` [Example 135]: the IC50 on KRAS G12V and on KRAS G12D was not above 100 nM each time.
Take `Cc1nc2c(F)c(-c3cccc(Cl)c3Cl)c(CCC#N)cc2c2c1cc([C@H]1C[C@H](OC3CC3)CN1C(=O)C1CC1)n2[C@H]1[C@H]2CN[C@@H]1C2` [Example 230]: the IC50 at KRAS G12V and on KRAS G12D was not above 100 nM in each case.
Take `Cc1nc2c(F)c(-c3cccc(Cl)c3Cl)c(CCC#N)cc2c2c1cc([C@H]1C[C@H](Oc3ccnc(N4CC(OC(F)F)C4)c3)CN1C(=O)C1CC1)n2[C@H]1[C@H]2CN[C@@H]1C2` [Example 368]: the IC50 at KRAS G12V and at KRAS G12D was not above 100 nM each time.
For the molecule `CNC(=O)c1cccc(O[C@H]2C[C@H](c3cc4c(C)nc5c(F)c(-c6cccc(Cl)c6Cl)c(CCC#N)cc5c4n3[C@H]3[C@H]4CN[C@@H]3C4)N(C(=O)C3CC3)C2)c1` [Example 173], the IC50 at KRAS G12V and on KRAS G12D was not above 100 nM in each case.
Take `Cc1nc2c(F)c(-c3cccc(Cl)c3Cl)c(CCC#N)cc2c2c1cc([C@H]1C[C@H](n3nncc3Cc3ccccc3)CN1C(=O)C1CC1)n2[C@H]1[C@H]2CN[C@@H]1C2` [Example 160]: the IC50 at KRAS G12V is not above 100 nM; at KRAS G12D it was 100 to 1000 nM.
For `Cc1nc2c(F)c(-c3cccc(Cl)c3Cl)c(CCC#N)cc2c2c1cc([C@H]1C[C@H](OCC3(C)CC(F)(F)C3)CN1C(=O)C1CC1)n2[C@H]1[C@H]2CN[C@@H]1C2` [Example 412], the concentration for half-maximal inhibition (IC50) on KRAS G12V and at KRAS G12D was not above 100 nM in each case.
As for `Cc1nc2c(F)c(-c3cccc(Cl)c3Cl)c(CCC#N)cc2c2c1cc([C@H]1C[C@H](Oc3cc(N4CC(C(F)F)C4)ccn3)CN1C(=O)C1CC1)n2[C@H]1[C@H]2CN[C@@H]1C2` [Example 371], the IC50 at KRAS G12V and on KRAS G12D was not above 100 nM in each case.
Consider `C[C@@H](O)c1nc2c(F)c(-c3cccc(Cl)c3Cl)c(CCC#N)cc2c2c1cc([C@H]1[C@@H](F)[C@H](Oc3ccccn3)CN1C(=O)C1CC1)n2[C@H]1[C@H]2CN[C@@H]1C2` [Example 85], for which the IC50 on KRAS G12V and at KRAS G12D was not above 100 nM in each case.
Turning to `Cc1nc2c(F)c(-c3cccc(Cl)c3Cl)c(CCC#N)cc2c2c1cc([C@H]1C[C@H](Oc3cccc(C#N)c3)[C@H](C)N1C(=O)C1CC1)n2[C@H]1[C@H]2CN[C@@H]1C2` [Example 209], the half-inhibitory concentration (IC50) on KRAS G12V was 100 to 1000 nM; on KRAS G12D, not above 100 nM.
Turning to `Cc1nc2c(F)c(-c3cccc(Cl)c3Cl)c(CCC#N)cc2c2c1cc([C@H]1C[C@H](n3ncnn3)CN1C(=O)C1CC1)n2[C@H]1[C@H]2CN[C@@H]1C2` [Example 396], the IC50 on KRAS G12V and on KRAS G12D was not above 100 nM in each case.
In the case of `Cc1nc2c(F)c(-c3cccc(Cl)c3Cl)c(CCC#N)cc2c2c1cc([C@H]1C[C@H](OCc3ccnn3C(F)(F)F)CN1C(=O)C1CC1)n2[C@H]1[C@H]2CN[C@@H]1C2` [Example 312], the IC50 at KRAS G12V and on KRAS G12D was not above 100 nM in each case.
With `Cc1c(O[C@H]2C[C@H](c3cc4c(C)nc5c(F)c(-c6cccc(Cl)c6Cl)c(CCC#N)cc5c4n3[C@H]3[C@H]4CN[C@@H]3C4)N(C(=O)C3CC3)C2)ccnc1Cl` [Example 295], the IC50 on KRAS G12V and on KRAS G12D was not above 100 nM throughout.
In the case of `Cc1nc2c(F)c(-c3cccc(Cl)c3Cl)c(CCC#N)cc2c2c1cc([C@H]1C[C@H](n3cc(C4(C)CC4)nn3)CN1C(=O)C1CC1)n2[C@H]1[C@H]2CN[C@@H]1C2` [Example 224], the IC50 at KRAS G12V and at KRAS G12D was not above 100 nM each time.
As for `Cc1nc2c(F)c(-c3cccc(Cl)c3Cl)c(CCC#N)cc2c2c1cc([C@H]1C[C@H](n3cc(C4CNC(=O)C4)nn3)CN1C(=O)C1CC1)n2[C@H]1[C@H]2CN[C@@H]1C2` (stereo partly drawn) [Example 273], the IC50 at KRAS G12V and at KRAS G12D was not above 100 nM in each case.
`Cc1nc2c(F)c(-c3cccc(Cl)c3Cl)c(CCC#N)cc2c2c1cc([C@H]1C[C@H](OCc3cc(F)ccc3C#N)CN1C(=O)C1CC1)n2[C@H]1[C@H]2CN[C@@H]1C2` [Example 157]: the IC50 at KRAS G12V and at KRAS G12D was not above 100 nM in each case.
Turning to `Cc1nc2c(F)c(-c3cccc(Cl)c3Cl)c(CCC#N)cc2c2c1cc([C@H]1C[C@H](Oc3cc(C(F)(F)F)nn3C)CN1C(=O)C1CC1)n2[C@H]1[C@H]2CN[C@@H]1C2` [Example 375], the IC50 at KRAS G12V and on KRAS G12D was not above 100 nM each time.
Turning to `Cc1nc2c(F)c(-c3cccc(Cl)c3Cl)c(CCC#N)cc2c2c1cc([C@H]1C[C@H](OCc3ccns3)CN1C(=O)C1CC1)n2[C@H]1[C@H]2CN[C@@H]1C2` [Example 257], the IC50 on KRAS G12V and at KRAS G12D was not above 100 nM each time.
As to `Cc1nc2c(F)c(-c3cccc(Cl)c3Cl)c(CCC#N)cc2c2c1cc([C@H]1C[C@H](OCc3cn(C)nn3)CN1C(=O)C1CC1)n2[C@H]1[C@H]2CN[C@@H]1C2` [Example 100], the IC50 on KRAS G12V and on KRAS G12D was not above 100 nM in each case.
As to `Cc1nc2c(F)c(-c3cccc(Cl)c3Cl)c(CCC#N)cc2c2c1cc([C@H]1C[C@H](OC3CCC(O)CC3)CN1C(=O)C1CC1)n2[C@H]1[C@H]2CN[C@@H]1C2` (stereo partly drawn) [Example 336], the IC50 at KRAS G12V and at KRAS G12D was not above 100 nM each time.
As for `Cc1nc2c(F)c(-c3cccc(Cl)c3Cl)c(CCC#N)cc2c2c1cc([C@H]1C[C@H](OCc3ccccc3)CN1C(=O)C1(C)CC1)n2[C@H]1[C@H]2CN[C@@H]1C2` [Example 127], the IC50 on KRAS G12V and on KRAS G12D was not above 100 nM throughout.
For the molecule `CNC(=O)c1ccc(-c2nc3c(F)c(-c4cccc(Cl)c4Cl)c(CCC#N)cc3c3c2cc([C@H]2C[C@H](OCc4c(F)cccc4F)CN2C(=O)C2CC2)n3[C@H]2[C@H]3CN[C@@H]2C3)cn1` [Example 220], the IC50 at KRAS G12V and on KRAS G12D was not above 100 nM each time.
With `CCn1cc(CO[C@H]2C[C@H](c3cc4c(C)nc5c(F)c(-c6cccc(Cl)c6Cl)c(CCC#N)cc5c4n3[C@H]3[C@H]4CN[C@@H]3C4)N(C(=O)C3CC3)C2)nn1` [Example 231], the IC50 on KRAS G12V and at KRAS G12D was not above 100 nM throughout.
As to `Cc1nc2c(F)c(-c3cccc(Cl)c3Cl)c(CCC#N)cc2c2c1cc([C@H]1C[C@H](Oc3cccc(C#N)c3)[C@@H](C)N1C(=O)C1CC1)n2[C@H]1[C@H]2CN[C@@H]1C2` [Example 213], the IC50 at KRAS G12V is not above 100 nM; on KRAS G12D, 100 to 1000 nM.

What is called IC50 is the concentration that gives 50% inhibition.
